The source of these data is patent US12281122B1, “PI3K inhibitors” (Cogent Biosciences, Inc., priority 2023, dated 2025).

Each structure is given as a SMILES string.

Test [1] concerns T47D (PI3Kα-H1047R) cell line. The experiment in a line: HTRF phospho-AKT(S473) cell assay in T47D cells. It is filed as cell-based, human. Particulars: Homo sapiens; HTRF phospho-AKT(S473), T47D (PI3Kα-H1047R) cells, 2 hours compound incubation. In outline: (§1)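 pAKT(S473) in lysates read by HTRF after a 2 h, 37 °C compound exposure (12-point 1:3 series, max 0.5% DMSO). SKBR3 (wild type, top 10 μM) received 70 ng/ml PDGF-BB during the final 15 min; T47D (H1047R, top 5 μM) was unstimulated. IC50 values derived from the dose-response.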

Test [2] deals with SKBR3 (PI3Kα-Wild Type) cell line. Kind of test: HTRF phospho-AKT(S473) cell assay in SKBR3 cells. Type of test: cell-based, human. To be noted: Homo sapiens, SK-BR-3; HTRF phospho-AKT(S473), SKBR3 (PI3Kα-Wild Type) cells, 2 hours compound incubation, PDGF-BB stimulated. Summed up: as §1
For orientation: In TR-FRET formats the signal depends on donor and acceptor labels being close together.

A word on the IC50: it is the concentration at which inhibition is half-maximal. A low value points to inhibition by little substance. As to `Cc1cc([C@@H](C)Nc2ccc(Cl)nc2C(=O)NS(C)(=O)=O)c2nc(N3CCC4(CCc5c[nH]nc54)CC3)n(C)c(=O)c2c1` [Compound 682, (R)-6-chloro-3-((1-(2-(4,5-dihydro-2H-spiro [cyclopenta[c]pyrazole-6,4′-piperidin]-1′-yl)-3,6-dimethyl-4-oxo-3,4-dihydroquinazolin-8-yl)ethyl)amino)-N-(methylsulfonyl) picolinamide], the half-maximal inhibitory concentration (IC50) in test [1] was 250 to 500 nM; in test [2] it was not below 5000 nM.
In the same order, the values of `Cc1cc([C@@H](C)Nc2ccc(Cl)nc2C(=O)NS(C)(=O)=O)c2nc(N3Cc4cn(CC5CC5)nc4C3)n(C)c(=O)c2c1` [Compound 683, (R)-6-chloro-3-((1-(2-(2-(cyclopropylmethyl)-2,6-dihydropyrrolo[3,4-c]pyrazol-5(4H)-yl)-3,6-dimethyl-4-oxo-3,4-dihydroquinazolin-8-yl)ethyl)amino)-N-(methylsulfonyl) picolinamide] are 250 to 500 nM and 1000 to 5000 nM.
In the same order, the values of `Cc1cc([C@@H](C)Nc2ccc(Cl)nc2C(=O)NS(C)(=O)=O)c2nc(N3Cc4cn(Cc5ccccc5)nc4C3)n(C)c(=O)c2c1` [Compound 684, (R)-3-((1-(2-(2-benzyl-2,6-dihydropyrrolo[3,4-c]pyrazol-5(4H)-yl)-3,6-dimethyl-4-oxo-3,4-dihydroquinazolin-8-yl)ethyl)amino)-6-chloro-N-(methylsulfonyl) picolinamide] are less than 250 nM and 1000 to 5000 nM.
Taken in the same sequence, the figures for `Cc1cc([C@@H](C)Nc2ccc(Cl)nc2C(=O)NS(C)(=O)=O)c2nc(N3CCC(n4ncc5ccccc54)CC3)n(C)c(=O)c2c1` [Compound 685, (R)-3-((1-(2-(4-(1H-indazol-1-yl)piperidin-1-yl)-3,6-dimethyl-4-oxo-3,4-dihydroquinazolin-8-yl)ethyl)amino)-6-chloro-N-(methylsulfonyl) picolinamide] were 250 to 500 nM and not below 5000 nM.
In the case of `Cc1cc([C@@H](C)Nc2ccc(Cl)nc2C(=O)NS(C)(=O)=O)c2nc(N3CCC(n4cc(C#N)cn4)CC3)n(C)c(=O)c2c1` [Compound 686, (R)-6-chloro-3-((1-(2-(4-(4-cyano-1H-pyrazol-1-yl)piperidin-1-yl)-3,6-dimethyl-4-oxo-3,4-dihydroquinazolin-8-yl)ethyl)amino)-N-(methylsulfonyl) picolinamide], the IC50 in test [1] is less than 250 nM; in test [2], 250 to 500 nM.
Taken in the same sequence, the figures for `Cc1cc([C@@H](C)Nc2ccc(Cl)nc2C(=O)NS(C)(=O)=O)c2nc(N3CC[C@@H](c4ccccc4)C3)n(C)c(=O)c2c1` [Compound 687, 6-chloro-3-(((R)-1-(3,6-dimethyl-4-oxo-2-((S)-3-phenylpyrrolidin-1-yl)-3,4-dihydroquinazolin-8-yl)ethyl)amino)-N-(methylsulfonyl) picolinamide] were 250 to 500 nM and not below 5000 nM.
As for `Cc1cc([C@@H](C)Nc2ccc(Cl)nc2C(=O)NS(C)(=O)=O)c2nc(N3Cc4cn(-c5ccccn5)nc4C3)n(C)c(=O)c2c1` [Compound 688, (R)-6-chloro-3-((1-(3,6-dimethyl-4-oxo-2-(2-(pyridin-2-yl)-2,6-dihydropyrrolo[3,4-c]pyrazol-5(4H)-yl)-3,4-dihydroquinazolin-8-yl)ethyl)amino)-N-(methylsulfonyl) picolinamide], the IC50 in test [1] is 250 to 500 nM; in test [2], not below 5000 nM.
In the case of `Cc1cc([C@@H](C)Nc2ccc(Cl)nc2C(=O)NS(C)(=O)=O)c2nc(N3CCO[C@H](c4ccccc4)C3)n(C)c(=O)c2c1` [Compound 689, 6-chloro-3-(((R)-1-(3,6-dimethyl-4-oxo-2-((R)-2-phenylmorpholino)-3,4-dihydroquinazolin-8-yl)ethyl)amino)-N-(methylsulfonyl) picolinamide], the IC50 is less than 250 nM in test [1] and 1000 to 5000 nM in test [2].
Turning to `Cc1cc([C@@H](C)Nc2ccc(Cl)nc2C(=O)NS(C)(=O)=O)c2nc(N3CCC4(CCOCC4)CC3)n(C)c(=O)c2c1` [Compound 690, (R)-6-chloro-3-((1-(3,6-dimethyl-4-oxo-2-(3-oxa-9-azaspiro[5.5]undecan-9-yl)-3,4-dihydroquinazolin-8-yl)ethyl)amino)-N-(methylsulfonyl) picolinamide], the concentration for half-maximal inhibition (IC50) in test [1] was less than 250 nM; in test [2], 1000 to 5000 nM.
In the same order, the values of `Cc1cc([C@@H](C)Nc2ccc(Cl)nc2C(=O)NS(C)(=O)=O)c2nc(N3CCC(c4cc5ccccn5n4)CC3)n(C)c(=O)c2c1` [Compound 692, (R)-6-chloro-3-((1-(3,6-dimethyl-4-oxo-2-(4-(pyrazolo[1,5-a]pyridin-2-yl)piperidin-1-yl)-3,4-dihydroquinazolin-8-yl)ethyl)amino)-N-(methylsulfonyl) picolinamide] are 250 to 500 nM and not below 5000 nM.
`Cc1cc([C@@H](C)Nc2ccc(Cl)nc2C(=O)NS(C)(=O)=O)c2nc(N3Cc4cn(C5CC(F)(F)C5)nc4C3)n(C)c(=O)c2c1` [Compound 693, (R)-6-chloro-3-((1-(2-(2-(3,3-difluorocyclobutyl)-2,6-dihydropyrrolo[3,4-c]pyrazol-5(4H)-yl)-3,6-dimethyl-4-oxo-3,4-dihydroquinazolin-8-yl)ethyl)amino)-N-(methylsulfonyl) picolinamide]: the values for the concentration for half-maximal inhibition (IC50) in test [1] and in test [2] were less than 250 nM and 1000 to 5000 nM, respectively.
As for `Cc1cc([C@@H](C)Nc2ccc(Cl)nc2C(=O)NS(C)(=O)=O)c2nc(N3CCC(Oc4ccccn4)CC3)n(C)c(=O)c2c1` [Compound 694, (R)-6-chloro-3-((1-(3,6-dimethyl-4-oxo-2-(4-(pyridin-2-yloxy)piperidin-1-yl)-3,4-dihydroquinazolin-8-yl)ethyl)amino)-N-(methylsulfonyl) picolinamide], the IC50 is 250 to 500 nM in test [1] and not below 5000 nM in test [2].
Taken in the same sequence, the figures for `Cc1cc([C@@H](C)Nc2ccc(Cl)nc2C(=O)NS(C)(=O)=O)c2nc(N3[C@@H]4CC[C@H]3C[C@H](n3ncc5ccccc53)C4)n(C)c(=O)c2c1` [Compound 695, 3-(((R)-1-(2-((1R,3S,5S)-3-(1H-indazol-1-yl)-8-azabicyclo[3.2.1]octan-8-yl)-3,6-dimethyl-4-oxo-3,4-dihydroquinazolin-8-yl)ethyl)amino)-6-chloro-N-(methylsulfonyl) picolinamide] were 250 to 500 nM and not below 5000 nM.
In the same order, the values of `Cc1cc([C@@H](C)Nc2ccc(Cl)nc2C(=O)NS(C)(=O)=O)c2nc(N3[C@@H]4CC[C@H]3C[C@@H](n3ncc5ccccc53)C4)n(C)c(=O)c2c1` [Compound 696, 3-(((R)-1-(2-((1R,3R,5S)-3-(1H-indazol-1-yl)-8-azabicyclo[3.2.1]octan-8-yl)-3,6-dimethyl-4-oxo-3,4-dihydroquinazolin-8-yl)ethyl)amino)-6-chloro-N-(methylsulfonyl) picolinamide] are 500 to 1000 nM and not below 5000 nM.
Taken in the same sequence, the figures for `Cc1cc([C@@H](C)Nc2ccc(Cl)nc2C(=O)NS(C)(=O)=O)c2nc(N3CCC(c4nn(C)cc4C#N)CC3)n(C)c(=O)c2c1` [Compound 697, (R)-6-chloro-3-((1-(2-(4-(4-cyano-1-methyl-1H-pyrazol-3-yl)piperidin-1-yl)-3,6-dimethyl-4-oxo-3,4-dihydroquinazolin-8-yl)ethyl)amino)-N-(methylsulfonyl) picolinamide] were 250 to 500 nM and 1000 to 5000 nM.
Turning to `Cc1cc([C@@H](C)Nc2ccc(Cl)nc2C(=O)NS(C)(=O)=O)c2nc(N3Cc4cn(-c5ncc(C#N)cc5C)nc4C3)n(C)c(=O)c2c1` [Compound 698, (R)-6-chloro-3-((1-(2-(2-(5-cyano-3-methylpyridin-2-yl)-2,6-dihydropyrrolo[3,4-c]pyrazol-5(4H)-yl)-3,6-dimethyl-4-oxo-3,4-dihydroquinazolin-8-yl)ethyl)amino)-N-(methylsulfonyl) picolinamide], the half-maximal inhibitory concentration (IC50) in test [1] lay within 250 to 500 nM; in test [2], 1000 to 5000 nM.
Taken in the same sequence, the figures for `Cc1cc([C@@H](C)Nc2ccc(Cl)nc2C(=O)NS(C)(=O)=O)c2nc(N3C[C@@H]4[C@H](C3)[C@H]4c3cc[nH]n3)n(C)c(=O)c2c1` [Compound 699, 3-(((R)-1-(2-((1R,5S,6R)-6-(1H-pyrazol-3-yl)-3-azabicyclo[3.1.0]hexan-3-yl)-3,6-dimethyl-4-oxo-3,4-dihydroquinazolin-8-yl)ethyl)amino)-6-chloro-N-(methylsulfonyl) picolinamide] were 250 to 500 nM and 1000 to 5000 nM.
Taken in the same sequence, the figures for `COc1ccc(C2CCN(c3nc4c([C@@H](C)Nc5ccc(Cl)nc5C(=O)NS(C)(=O)=O)cc(C)cc4c(=O)n3C)CC2)cn1` [Compound 700, (R)-6-chloro-3-((1-(2-(4-(6-methoxypyridin-3-yl)piperidin-1-yl)-3,6-dimethyl-4-oxo-3,4-dihydroquinazolin-8-yl)ethyl)amino)-N-(methylsulfonyl) picolinamide] were 250 to 500 nM and not below 5000 nM.
Turning to `Cc1cc([C@@H](C)Nc2ccc(Cl)nc2C(=O)NS(C)(=O)=O)c2nc(N3Cc4cn(-c5ncccc5C)nc4C3)n(C)c(=O)c2c1` [Compound 701, (R)-6-chloro-3-((1-(3,6-dimethyl-2-(2-(3-methylpyridin-2-yl)-2,6-dihydropyrrolo[3,4-c]pyrazol-5(4H)-yl)-4-oxo-3,4-dihydroquinazolin-8-yl)ethyl)amino)-N-(methylsulfonyl) picolinamide], the concentration for half-maximal inhibition (IC50) in test [1] is 250 to 500 nM; in test [2], not below 5000 nM.
Turning to `Cc1cc([C@@H](C)Nc2ccc(Cl)nc2C(=O)NS(C)(=O)=O)c2nc(N3CCC(c4nn(C)cc4Cl)CC3)n(C)c(=O)c2c1` [Compound 702, (R)-6-chloro-3-((1-(2-(4-(4-chloro-1-methyl-1H-pyrazol-3-yl)piperidin-1-yl)-3,6-dimethyl-4-oxo-3,4-dihydroquinazolin-8-yl)ethyl)amino)-N-(methylsulfonyl) picolinamide], the results for the IC50 in test [1] and in test [2] were 250 to 500 nM and not below 5000 nM, respectively.
